Experimental data published in patent publication US20130274174A1, “THERAPEUTIC COMBINATION OF DAPTOMYCIN AND PROTEIN SYNTHESIS INHIBITOR ANTIBIOTIC, AND METHODS OF USE” (priority 2011, published 2013).
≈ marks a conversion by molar mass, not a printed value. Entries after “also recorded” stand apart in the source; their conditions may differ. Read-outs that look alike come from different tables or passages of the source.

Legend:
[1] = tested on: Staphylococcus aureus 100 (ATCC 29213); assay: FIC checkerboard broth microdilution, control combinations; type: cell-based; conditions: ATCC29213, agent alone, repeated determinations by date
Description: Test articles of stock solutions of daptomycin (Cubist, lot MCB2007) and TR-700 were prepared at 40 times the final target concentration in DMSO:water (1:1). DMSO was added first, the solutions were allowed to stand for 60 minutes and then the water was added. […] The final DMSO concentration was 2.5%. The final drug concentrations in the FIC assay plates were set to bracket the MIC value of each test article for each test organism, unless the strain was totally resistant to the test article.
The test organisms were originally received from clinical sources, or from the American Type Culture Collection. […] Aliquots were then frozen at −80° C.
The broth was prepared at 1.05× normal weight/volume to offset the 5% volume of the drugs in the final test plates.
Antimicrob. Agents Chemother.
These plates were used to prepare the drug “mother plates” which provided the serial drug dilutions for the drug combination plates.
The “daughter plates” were loaded with 180 μL of test medium using the Multidrop 384. Then, the Multimek 96 was used to transfer 10 μL of drug solution from each well of the drug combination mother plate to each corresponding well of the daughter plate in a single step.

S. aureus MW2 (NRS123) = assay: microbe, parasite or virus in culture; type: cell-based, Staphylococcus aureus; conditions: for MIC: Staphylococcus aureus
Description: S. aureus strains MW2 (NARSA collection clinical MRSA isolate, NRS123) and ATCC 33591 (MRSA strain from the American Type Culture Collection) were cultured on Mueller-Hinton II cation adjusted (MHA) medium in 90×90 mm square petri dishes. MHA containing ¼ of the MIC value of TR-700, TR-705, LZD, TIA, CLI, TET, or VAN, TMP/SMX throughout the plate and a continuous linear gradient of DAP across the plate was used to passage MW2. ATCC 33591 was passaged with ¼ of the MIC of a subset of these drugs (TR-700, TMP/SMX, and VAN). A DAP-only control passage group was included for both strains. DAP gradients were created by pouring two layers of media as previously described (Bryson, V., et al. 1952. Microbial selection. Science 116:45-51; Locke, J. B., et al., 2009. Antimicrob. Agents Chemother. 53:5265-5274). Following each passage the leading edge of growth (i.e., most resistant cells) was resuspended in phosphate buffered saline (PBS) to an absorbance of 0.30 OD600 and a 100 μl aliquot containing ˜3.0×10^7 CFU (colony-forming units) was spread on to the proceeding passage plate. The starting maximal DAP concentration was 2 μg/ml and was increased in two-fold increments when the leading edge of growth surpassed the half way point on the plate. A glycerol stock was made from the total cell population for each culture condition for each passage. Thirty serial passages were completed for each treatment group.

S. aureus [2] = conditions: Locke et al. 2009; cited from earlier work
S. aureus [3] = conditions: co-selection with a subinhibitory concentration; Berti et al. 2012; cited from earlier work

For `O=C(O)[C@H]1/C(=C/CO)O[C@@H]2CC(=O)N21` [Clavulanate], the MIC [1] was 16 µg/mL.
For `CC(=O)NC[C@H]1CN(c2ccc(N3CCOCC3)c(F)c2)C(=O)O1` [LZD, linezolid], the MIC (S. aureus MW2 (NRS123); NRS123, passage 0, NRS123 WT) was 2 µg/mL (≈ 5.93 µM), the MIC (S. aureus MW2 (NRS123); NRS123, passage 5, selection group DAP) was 2 µg/mL (≈ 5.93 µM) and the MIC (S. aureus MW2 (NRS123); NRS123, passage 5, selection group DAP + CLI) was 2 µg/mL. It also gave an MIC (S. aureus MW2 (NRS123); NRS123, passage 5, selection group DAP + LZD) of 2 µg/mL, an MIC (S. aureus MW2 (NRS123); NRS123, passage 5, selection group DAP + TET) of 2 µg/mL and an MIC (S. aureus MW2 (NRS123); NRS123, passage 5, selection group DAP + TIA) of 2 µg/mL. It also gave an MIC (S. aureus MW2 (NRS123); NRS123, passage 5, selection group DAP + TMP/SMX) of 1 µg/mL, an MIC (S. aureus MW2 (NRS123); NRS123, passage 5, selection group DAP + TR-700) of 2 µg/mL and an MIC (S. aureus MW2 (NRS123); NRS123, passage 5, selection group DAP + TR-705) of 2 µg/mL. It also gave an MIC (S. aureus MW2 (NRS123); NRS123, passage 5, selection group DAP + VAN) of 1 µg/mL, an MIC (S. aureus MW2 (NRS123); NRS123, passage 10, selection group DAP) of 2 µg/mL (≈ 5.93 µM) and an MIC (S. aureus MW2 (NRS123); NRS123, passage 10, selection group DAP + CLI) of 2 µg/mL. For the same molecule, the MIC (S. aureus MW2 (NRS123); NRS123, passage 10, selection group DAP + LZD) was 2 µg/mL, the MIC (S. aureus MW2 (NRS123); NRS123, passage 10, selection group DAP + TET) was 2 µg/mL and the MIC (S. aureus MW2 (NRS123); NRS123, passage 10, selection group DAP + TIA) was 2 µg/mL. It also gave an MIC (S. aureus MW2 (NRS123); NRS123, passage 10, selection group DAP + TMP/SMX) of 2 µg/mL, an MIC (S. aureus MW2 (NRS123); NRS123, passage 10, selection group DAP + TR-700) of 2 µg/mL and an MIC (S. aureus MW2 (NRS123); NRS123, passage 10, selection group DAP + TR-705) of 2 µg/mL. For the same molecule, the MIC (S. aureus MW2 (NRS123); NRS123, passage 10, selection group DAP + VAN) was 1 µg/mL, the MIC (S. aureus MW2 (NRS123); NRS123, passage 15, selection group DAP) was 1 µg/mL (≈ 2.96 µM) and the MIC (S. aureus MW2 (NRS123); NRS123, passage 15, selection group DAP + CLI) was 2 µg/mL. For the same molecule, the MIC (S. aureus MW2 (NRS123); NRS123, passage 15, selection group DAP + LZD) was 2 µg/mL, the MIC (S. aureus MW2 (NRS123); NRS123, passage 15, selection group DAP + TET) was 1 µg/mL and the MIC (S. aureus MW2 (NRS123); NRS123, passage 15, selection group DAP + TIA) was 2 µg/mL. For the same molecule, the MIC (S. aureus MW2 (NRS123); NRS123, passage 15, selection group DAP + TMP/SMX) was 2 µg/mL, the MIC (S. aureus MW2 (NRS123); NRS123, passage 15, selection group DAP + TR-700) was 2 µg/mL and the MIC (S. aureus MW2 (NRS123); NRS123, passage 15, selection group DAP + TR-705) was 2 µg/mL. It also gave an MIC (S. aureus MW2 (NRS123); NRS123, passage 15, selection group DAP + VAN) of 1 µg/mL, an MIC (S. aureus MW2 (NRS123); NRS123, passage 20, selection group DAP) of 2 µg/mL (≈ 5.93 µM) and an MIC (S. aureus MW2 (NRS123); NRS123, passage 20, selection group DAP + CLI) of 2 µg/mL. It also gave an MIC (S. aureus MW2 (NRS123); NRS123, passage 20, selection group DAP + LZD) of 2 µg/mL, an MIC (S. aureus MW2 (NRS123); NRS123, passage 20, selection group DAP + TET) of 1 µg/mL and an MIC (S. aureus MW2 (NRS123); NRS123, passage 20, selection group DAP + TIA) of 2 µg/mL. It also gave an MIC (S. aureus MW2 (NRS123); NRS123, passage 20, selection group DAP + TMP/SMX) of 2 µg/mL, an MIC (S. aureus MW2 (NRS123); NRS123, passage 20, selection group DAP + TR-700) of 2 µg/mL and an MIC (S. aureus MW2 (NRS123); NRS123, passage 20, selection group DAP + TR-705) of 2 µg/mL. It also gave an MIC (S. aureus MW2 (NRS123); NRS123, passage 20, selection group DAP + VAN) of 1 µg/mL, an MIC (S. aureus MW2 (NRS123); NRS123, passage 25, selection group DAP) of 1 µg/mL (≈ 2.96 µM) and an MIC (S. aureus MW2 (NRS123); NRS123, passage 25, selection group DAP + CLI) of 2 µg/mL. It also gave an MIC (S. aureus MW2 (NRS123); NRS123, passage 25, selection group DAP + LZD) of 1 µg/mL, an MIC (S. aureus MW2 (NRS123); NRS123, passage 25, selection group DAP + TET) of 1 µg/mL and an MIC (S. aureus MW2 (NRS123); NRS123, passage 25, selection group DAP + TIA) of 2 µg/mL. For the same molecule, the MIC (S. aureus MW2 (NRS123); NRS123, passage 25, selection group DAP + TMP/SMX) was 2 µg/mL, the MIC (S. aureus MW2 (NRS123); NRS123, passage 25, selection group DAP + TR-700) was 2 µg/mL and the MIC (S. aureus MW2 (NRS123); NRS123, passage 25, selection group DAP + TR-705) was 2 µg/mL. It also gave an MIC (S. aureus MW2 (NRS123); NRS123, passage 25, selection group DAP + VAN) of 1 µg/mL, an MIC (S. aureus MW2 (NRS123); NRS123, passage 30, selection group DAP) of 1 µg/mL (≈ 2.96 µM) and an MIC (S. aureus MW2 (NRS123); NRS123, passage 30, selection group DAP + CLI) of 2 µg/mL. It also gave an MIC (S. aureus MW2 (NRS123); NRS123, passage 30, selection group DAP + LZD) of 2 µg/mL, an MIC (S. aureus MW2 (NRS123); NRS123, passage 30, selection group DAP + TET) of 1 µg/mL and an MIC (S. aureus MW2 (NRS123); NRS123, passage 30, selection group DAP + TIA) of 2 µg/mL. For the same molecule, the MIC (S. aureus MW2 (NRS123); NRS123, passage 30, selection group DAP + TMP/SMX) was 2 µg/mL, the MIC (S. aureus MW2 (NRS123); NRS123, passage 30, selection group DAP + TR-700) was 2 µg/mL and the MIC (S. aureus MW2 (NRS123); NRS123, passage 30, selection group DAP + TR-705) was 2 µg/mL. The MIC (S. aureus MW2 (NRS123); NRS123, passage 30, selection group DAP + VAN) was 2 µg/mL, the MIC (S. aureus MW2 (NRS123); NRS123, read-out: DAP MIC by the end of the experiment (selection of DAP^ns strains), MW2, passaged with DAP alone or with co-selecting agent at ¼ MIC, CLSI breakpoint) was over 1 µg/mL and the “effect on preventing the emergence of DAP^ns” value (S. aureus MW2 (NRS123); co-selection at ¼ MIC, VAN: both backgrounds) was “did not prevent the emergence of DAP non-susceptibility; also recorded: no effect on preventing DAP^ns”. For the same molecule, the “susceptibility to the co-selecting agent in its co-selection group” value (S. aureus MW2 (NRS123); over the course of 30 passages) was “no increases in LZD MIC values over WT were observed”, the “S. aureus mutation frequency higher than for TR-700” value (S. aureus [2]) was over 10 fold and the “effect on preventing the emergence of DAP^ns S. aureus” value (S. aureus [3]) was “did not have any effect on preventing the emergence of DAP^ns S. aureus”.
